Measured values reported in patent US20130011538A1, “CRYSTAL OF MULTIVALENT METAL SALT OF MONATIN” (Ajinomoto Co., Inc., priority 2011, published 2013).
Structures can show the parent of a compound that is named as a salt.

Experiments:
[1] = Sweetness intensity evaluated by panelists in comparison with an aqueous solution of 5% sucrose; conditions: in comparison with the sweetness intensity of an aqueous solution of 5% sucrose; average of 7 panelists
Experimental: <Moisture content> 10.8 wt % (corresponding to the following equation: monatin:water=2:4) <Magnesium content> 3.6 wt % (corresponding to the following equation: monatin:magnesium=2:1)< <Characteristic X-ray diffraction peaks (2θ±0.2°, CuKα)> 8.9°, 11.2°, 15.0°, 17.8°, and 22.5° (FIG. 3)< <Crystalline form> The crystalline form in the deposited ML was a relatively small flake-like form (FIG. 4)< <Sweetness intensity> 2700 times higher (in comparison with the sweetness intensity of an aqueous solution of 5% sucrose, average of the sweetness intensities evaluated by 7 panelists)

[2] = Transmittance of monatin solution after storage (products containing sucrose); assay type: physicochemical; conditions: storage at 44° C. and 78%
Experimental: (§1) <Name of device> UV-visible spectrophotometer, Cary 50, manufactured by Varian Medical Systems, Inc. <Measurement wavelength>430 nm
(§2) <Sample> 1 g of sweetener composition is totally dissolved in 50 mL of water.
(§3) 1 g of each sweetener composition shown in the compositional table 2 was filled in a paper packaging material, and the packaging material was sealed with a heat seal. The composition was stored for a given period of time in a constant temperature and constant humidity device at 44° C. and 78%. Then, the total amount of the stored sample was dissolved in 50 mL of water, and the residual ratio of each monatin salt was calculated from the data obtained by HPLC analysis of the solution.

[3] = Transmittance of monatin solution after storage (products containing glucose); assay type: physicochemical; conditions: storage at 44° C. and 78%
Experimental: as §1, §2
as §3, with “1” for “2”

Row | Compound | Sweetness intensity [1] [times] | Change in color after storage [2] | Transmittance of the solution after storage (in words) [2] | Change in color after storage [3] | Transmittance of the solution after storage (in words) [3]
1 | NC(CC(O)(Cc1c[nH]c2ccccc12)C(=O)[O-])C(=O)O.NC(CC(O)(Cc1c[nH]c2ccccc12)C(=O)[O-])C(=O)O.O.O.O.O.[Mg+2] [Example 2, ((2R,4R)-monatin)2 magnesium salt tetrahydrate] | 2700 |  |  |  | 
2 | NC(CC(O)(Cc1c[nH]c2ccccc12)C(=O)O)C(=O)O [potassium salt, (2R,4R)-monatin monopotassium salt] |  | colored yellow | decreased | colored yellow | decreased
